# Results published in BindingDB's records for doi:10.1021/jm060314i (Cnrs, 2006).
# Where a name gives a salt, the structure may show the parent alone.
# Molecular target: 5L hepatoma cell line (Rattus norvegicus)
# Assay: Survival of rat 5L hepatoma cells after 48 hrs by MTS reduction assay
row,SMILES,IC50 [µM]
1,"CN(C)CCO/N=C1/C(c2c(O)[nH]c3c(Br)cccc23)=Nc2ccccc21 [(2'Z,3'E)-7-bromoindirubin-3'-[O-(2-dimethylaminoethyl)oxime] hydrochloride]",> 30
2,"CN(C)CCO/N=C1/C(c2c(O)[nH]c3c(Br)cccc23)=Nc2ccccc21 [(2'Z,3'E)-7-bromoindirubin-3'-[O-(2-dimethylaminoethyl)oxime]]",25
3,"Oc1[nH]c2c(Br)cccc2c1C1=Nc2ccccc2/C1=N\OCCN1CCCC1 [(2'Z,3'E)-7-bromoindirubin-3'-[O-(2-pyrrolidin-1-ylethyl)oxime] hydrochloride]",> 30
